Values of other authors in US20250073197A1, “THE ANTI-INFLAMMATORY ROLE OF CANNABIDIOL, RETINYL PALMITATE, BETA-CARYOPHYLLENE AND TRIBUTYRIN WHEN ADMINISTERED IN CONJUNCTION” (FLG Sciences, LLC, priority 2023, published 2025).

What was measured:
[1] = use in the disease named in Table 1 (Diabetes or Dyslipidemia)

CN(CCOc1ccc(CC2SC(=O)NC2=O)cc1)c1ccccn1 (stereo not shown) [Rosiglitazone]
Side effect [1]: Edema

cannabidiol [CBD]
gene transcripts down-regulated (24,000 gene probes; Illumina gene array): 524
gene transcripts up-regulated (24,000 gene probes; Illumina gene array): 680
genes downregulated 2-fold or more (24,000 gene probes; Illumina gene array): 38
transcripts upregulated 2-fold or more (24,000 gene probes; Illumina gene array): 123
gene transcripts significantly regulated (24,000 gene probes; Illumina gene array, 24,000 gene probes): 1204

CC(C)(Oc1ccc(CCNC(=O)c2ccc(Cl)cc2)cc1)C(=O)O [Bezafibrate]
Side effect [1]: Hepatotoxicity

CCc1ccc(CCOc2ccc(CC3SC(=O)NC3=O)cc2)nc1 (stereo not shown) [Pioglitazone]
Side effect [1]: Edema

Cn1c(COc2ccc(CC3SC(=O)NC3=O)cc2)nc2ccccc2c1=O (stereo not shown) [Balaglitazone]
Side effect [1]: Edema

CC(C)OC(=O)C(C)(C)Oc1ccc(C(=O)c2ccc(Cl)cc2)cc1 [Fenofibrates]
Side effect [1]: Pancreatitis
